Marks after values point to notes of the source that are not given here.
Legend:
Format in all cases: in vivo, rat
[1] = tested on: obesity rats induced by high-fat feed; test: Liver weight and liver/body weight of high-fat diet rats
Method: (§1) Forty male rats of 8-week-old Sprague-Dawley (SD) strain were purchased from BioLASCO (Taipei, Taiwan) for the experiment. The growing environment was one with constant indoor temperature (25±1° C.), relative humidity of 60%, and 12 hours of cyclic light (light time from 8:00 to 20:00). The rats were acclimatized for four days before the formal experiment, then reared in 5 groups of 8 rats each for 8 weeks and were fed in an ad libitum feeding manner, and their body weight, food intake and water intake were measured at regular intervals during the experimental period.
(§2) The experimental rats were divided into groups, and the obesity rats were induced by high-fat feed as follows (Please refer to Table 1). • i. NOR Group: Normal animal group. • ii. HF Group: High-fat control group including obesity rats induced by high-fat feed. • iii. RL Group: Obesity rats induced by high-fat feed and tube-fed daily with red yeast rice powder, equivalent to 0.5 g of red yeast rice containing 1.5 mg of Monascinol (compound having the structure of Formula (I)) per day consumed by an adult of 60 kg. • iv. RH Group: Obesity rats induced by high-fat feed and tube-fed red yeast rice powder daily, equivalent to 2 g of red yeast rice containing 6 mg of Monascinol (compound having the structure of Formula (I)) per day consumed by an adult of 60 kg. • V. Msol Group: Obesity rats induced by high-fat feed and tube-fed Monascinol (compound having the structure of Formula (I)) powder daily, equivalent to 3 mg of Monascinol (compound having the structure of Formula (I)) powder per day consumed by an adult of 60 kg.
(§3) (4) Test Substance Feeding Method: The test substance was administered orally by tube feeding, and the concentration of the test substance was adjusted by using reverse osmosis water. 2.0 mL of sterile plastic syringes with stainless steel feeding pins were used to feed each group of test substance daily. Stainless steel feeding needles were soaked in 70% alcohol solution and rinsed with sterile distilled water several times before use. Each group of test animals was administered the test substance once a day for 8 weeks.
(§4) The animals fasted for 16 hours before sacrifice, and carbon dioxide was used for asphyxiation during sacrifice. After making sure that there was no heartbeat, blood was drawn and organs were collected. […] After blood collection, the needle was slowly withdrawn from the blood vessel and the blood was placed into a 2 mL eppendorf tube and centrifuged at 10,000×g for 10 min. The upper serum layer was separated into eppendorf tubes and stored in a −20° C. freezer for future analysis.

[2] = tested on: obesity rats induced by high-fat feed; test: Liver lipid extraction and determination (TC, TG)
Method: as §2, §3
(§5) 0.1 g of liver tissue or fecal powder was weighed and 1 mL of chloroform:methanol (2:1, v/v volume ratio) was added, and homogenized with a tissue homogenizer and centrifuged to obtain the supernatant. The supernatant was then air-dried to remove the solvent, and the sample was dissolved by adding dimethyl sulfoxide (DMSO), and the extracts were kept at −20° C. The TC concentration was analyzed using a commercially available biochemical reagent (Model No. BXC 0261, Fortress), and the TG concentration was analyzed using a commercially available biochemical reagent (Model No. BXC 0271, Fortress), as per the kit instruction manual.

[3] = tested on: gut microbiota of high-fat diet rats; test: Gut microbiota fecal analysis (full-length 16S sequencing) of high-fat diet rats
Method: About 0.3 g of fresh feces was collected into 1.5 mL of eppendorf before fasting for sacrifice, sealed with parafilm, stored at −80° C. for analysis, and sent to BioTools (New Taipei, Taiwan) for analysis.
Total genomic DNA (QIAamp PowerFecal DNA, Qiagen) was extracted from the samples. The DNA concentration was determined by Qubit 4.0 fluorometer (Thermo Scientific) and adjusted to 1 ng/μL. The full-length 16S gene (V1-V9 region) was amplified by 16S gene-specific primers with barcodes (Forward primer 1): 5′ Phos/GCATC-16-base barcode-Sequence ID Number 11, Reverse primer 1: 5′Phos/GCATC-16-base barcode—Sequence ID Number 12). PCR reactions were performed using KAPA HiFi HotStart ReadyMix (Roche): at 95° C. for 3 min. and 20-27 cycles (Sample Dependency): at 95° C. for 30 sec., at 57° C. for 30 sec., at 72° C. for 60 sec; at 72° C. for 5 min., and finally stored at 4° C. for future use. PCR products were monitored on 1% agarose gels. Samples of approximately 1500 bp bright bands were selected and purified by using AMPure PB Beads for SMRTbell library preparation.
SMRTbell libraries were prepared based on full-length 16S gene amplifications with barcoded primers used in the Multiplex SMRTbell Library Preparation and Sequencing Program (Pacbio). Sequencing was performed in circular consensus sequencing (CCS) mode on a PacBio Sequel Ile instrument, generating HiFi read with a Phred Scale=30. The DNA to be tested will be sequenced iteratively. By comparing the results of the reverse sequencing, sequencing errors will be corrected, ultimately achieving a high accuracy of >99.9% (QV30).
Information Analysis (Sequential data processing/denoising and species annotation) The sample data from the downstream data were sorted out according to the Barcode sequence and PCR amplification primer sequences. After the removal of the barcodes and primer sequences, the data were imported into QIIME2 (v2019.7.0; https://qiime2.org/) and all the sequences of the samples were saved into one corresponding object Artifacts. QIIME2 cutadapt was used to remove the amplicon variant primers (forward primer 2: Sequence ID Number 13; reverse primer 2: Sequence ID Number 14), and the sequence with the primers removed will be used as QIIME2 DADA2. Input Reads.
The denoising analysis began with the filtering of sequences, setting each sequence to be cropped to a specified length (forward reads: 280 bp; reverse reads: 220 bp) and setting the MaxEE (forward reads: 2; reverse reads: 2) parameter as the maximum number of expected error bases allowed for the sequence. This was followed by denoising, the core algorithm of DADA2 utilizing the information of sequence abundance, quality score, and relationships between sequences to correct the […] of sequencing errors and to infer the real sequences. Splicing was performed after denoising each end of the sequence (minimum overlap length 20 bp; overlap region was not allowed to be mismatched). Finally, the spliced sequences are subjected to chimera removal by comparing the sequences with higher abundance in the sample. If a sequence with low abundance is similar to several sequences, it can be recognized as a chimera and removed from the sample. Sequences after denoising analysis were used as representative sequences of Amplicon Sequence Variants (ASVs) and can be obtained from the ASV table for subsequent species annotation. The QIIME2 feature-classifier (v2019.7.0; https://qiime2.org/) was used to select machine learning-based classification methods and to train naïve bayes classifiers for different databases and specific variability regions. The taxonomic annotation of ASVs represented by this classifier yields taxonomic information and the composition of the microbial phyla of each sample at each classification level including kingdom, phylum, class, order, family, genus, and species.
Welch's t-test was analyzed by STAMP (v2.1.3), and the intergroup species differences were plotted as bar charts. […]

[4] = tested on: obesity rats induced by high-fat feed; test: Body fat mass and body fat rate (perirenal and epididymal fat) of high-fat diet rats
Method: as §1, §2, §3
At the time of sacrifice, fatty tissues surrounding the kidneys and the epididymis (perirenal and epididymal fatty tissues) of the experimental animals were removed, and the their weights were measured and recorded. The body fat rate was calculated as follows: Body fat efficiency=(fat weight/body weight)×100%

[5] = tested on: obesity rats induced by high-fat feed; test: Fecal lipid extraction and determination (TC, TG)
Method: as §2, §3, §5

[6] = tested on: obesity rats induced by high-fat feed; test: Body weight change of obesity rats induced by high-fat feed
Method: as §1
The feeding dosage was calculated according to the method of “Estimating the maximum safe starting dose in initial clinical trials for therapeutics in adult healthy volunteers” published by the U.S. Food and Drug Administration in 2005. Provided that an adult of 60 kg was used as the base, the principle of dosage conversion is 6.2 times of the recommended daily intake of mg/kg bw/day for human as the recommended daily intake of mg/kg bw/day for rat, and the rat group is configured and fed with the dosage as shown in Table 1. The formulae are as follows: Dose intake per kilogram of body weight in rats=Recommended intake in humans÷Body weight 60 kg×6.2, and thus the daily dose intake per kilogram of body weight in rats can be calculated.
as §2
(4) Test Substance Feeding Method: The test substance was administered orally by tube feeding, and the concentration of the test substance was adjusted by using reverse osmosis water. 2.0 mL of sterile plastic syringes with stainless steel feeding pins were used to feed each group of test substance daily. […]
The body weight of rats was measured weekly and the changes in body weight of each group were compared at the end of the experiment.

[7] = tested on: obesity rats induced by high-fat feed; test: Serum biochemical analysis (TC, TG) of high-fat diet rats
Method: as §2, §3
(5) Sacrificial Blood Sampling: At the 8th week, the rats fasted for 12-14 hours before blood sampling. […] Blood samples were centrifuged with the conditions of 4° C. and 3,000×g for 15 min.
as §4
The test was performed using a biochemical autoanalyzer (Model No.: Beckman-700, purchased from Fullerton, California, USA). The items measured were Total Cholesterol (TC), and Triglyceride (TG).

[8] = 8 weeks, RL 0.5 g/day, RH 2 g/day, Msol 3 mg/day (adult equivalent)
[9] = Msol: Monascinol 0.31 mg/kg BW/day (adult 3 mg/day), tube-fed 8 weeks, high-fat diet SD rats, mean±SD
[10] = p<0.05, 8 weeks, RL 0.5 g/day, RH 2 g/day, Msol 3 mg/day (adult equivalent)
[11] = FIGS. 9A-9D, high-fat diet rats, red yeast rice 0.5 and 2 g/day, Monascinol 3 mg/day
[12] = order level, FIG. 7C, high-fat diet rats, red yeast rice 0.5 and 2 g/day, Monascinol 3 mg/day
[13] = phylum level, FIG. 7A, high-fat diet rats, red yeast rice 0.5 and 2 g/day, Monascinol 3 mg/day
[14] = vs HF group, 8 weeks, RL 0.5 g/day, RH 2 g/day, Msol 3 mg/day (adult equivalent)

C/C=C/C1=CC2=C(CO1)C(=O)C1(C)OC(=O)C(C(O)CCCCC)C1C2 (stereo not drawn) [Msol, Monascinol]
liver-to-body-weight ratio compared with HF group [1, 8]: reduction | Liver Weight/Body Weight [1, 9]: 3.28 ± 0.37^b % | Liver weight [1, 9]: 16.84 2.31^b g | liver weight compared with HF group [1, 10]: significant decrease | hepatic TC levels compared with HF group [2, 8]: effective in reducing | Liver TC [2, 9]: 5.05 ± 0.54^a mg/g | Liver TG [2, 9]: 14.40 ± 1.57^a mg/g | liver TG content compared with HF group [2, 10]: significantly different from the HF group | F/B ratio (abundance ratio of Firmicutes to Bacteroidetes) ([3]; FIG. 7A, high-fat diet rats, red yeast rice 0.5 and 2 g/day, Monascinol 3 mg/day): decrease | content of B. thetaiotaomicron in the intestines [3, 11]: most significant | intestinal abundance of Dubosiella newyorkensis [3, 11]: increase | bacterial abundance of Bifidobacteriales in the intestine [3, 12]: increased | intestinal abundance of Verrucomicrobiales [3, 12]: increased | intestinal abundance of Eubacteriales ([3]; order level, FIG. 8, HF group 50.14%, NOR 35.07%, MSol: Monascinol adult 3 mg/day, 8 weeks, high-fat diet rats): 43.21% | abundance of Bacteroidetes [3, 13]: increase | abundance of Firmicutes [3, 13]: decrease | abundance of A. muciniphila ([3]; species level, FIG. 7F, high-fat diet-induced obesity rats, red yeast rice 0.5 and 2 g/day, Monascinol 3 mg/day): increased | Fat/body weight [4, 9]: 3.35 ± 0.55^b % | body fat mass compared with HF group [4, 10]: significantly reduced | body fat percentage compared with HF group [4, 10]: significantly reduced | Fat weight ([4]; perirenal and epididymal fat, Msol: Monascinol 0.31 mg/kg BW/day (adult 3 mg/day), tube-fed 8 weeks, high-fat diet SD rats, mean±SD): 17.95 3.55^b g | Feces TC [5, 9]: 46.22 ± 4.72^c mg/g | Feces TG [5, 9]: 61.27 4.80^cd mg/g | accumulation of TG in the body (from fecal TG content) [5, 14]: effective in reducing | excretion of TC (feces) [5, 14]: significantly promoted | Weight 8 week [6, 9]: 512.1 ± 31.1^a g | Weight gain [6, 9]: 220.8 ± 38.8^a g | Weight before Sacrifice ([6]; after fasting, Msol: Monascinol 0.31 mg/kg BW/day (adult 3 mg/day), tube-fed 8 weeks, high-fat diet SD rats, mean±SD): 488.5 ± 31.7^a g | weight gain compared with HF group [6, 10]: significantly reduced | TC in serum [7, 9]: 65.0 ± 10.4^b mg/dL | TG in serum [7, 9]: 61.7 ± 10.7^a mg/dL | serum TC concentration compared with HF group [7, 10]: reduced | serum TG concentration compared with HF group ([7]; p<0.05, 8 weeks, red yeast rice at all doses (0.5 and 2 g/day), Msol 3 mg/day (adult equivalent)): significant reduction effect
